Source: patent publication US20020049223A1, “Quinoline and naphthyridine carboxylic acid antibacterials” (priority 1999, published 2002)

Key:
Assay in all cases: Assay B: in vitro antibacterial activity, broth microdilution MIC (NCCLS)
Format in all cases: cell-based
[1] = system: Enterococcus faecalis PIU 1967; details: Table 2, Assay B, cation-adjusted Mueller Hinton broth, 35° C., 16 to 20 hr; code B = Enterococcus faecalis PIU 1967; unit assumed
Method in brief: (§1)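 NCCLS broth microdilution with two-fold dilutions in cation-adjusted Mueller Hinton broth, inoculum about 5×10^5 CFU/mL, 35 °C in ambient air for 16-20 h; MIC read visually as lowest concentration completely inhibiting growth. S. pneumoniae: 3% lysed horse blood, 20-24 h; H. influenzae: 5 g/L yeast extract, 0.3 mmol/L hematin, 15 mg/L NAD, 20-24 h.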

[2] = system: Staphylococcus aureus ATCC 6538P; details: Table 2, Assay B, cation-adjusted Mueller Hinton broth, 35° C., 16 to 20 hr; code A = Staphylococcus aureus ATCC 6538P; unit assumed
Method in brief: as §1

[3] = system: Haemophilus influenzae DILL AMP R; details: Table 2, Assay B, Mueller Hinton broth with yeast extract, hematin and NAD, 20 to 24 hr; code E = Haemophilus influenzae DILL AMP R; unit assumed
Method in brief: as §1

[4] = system: Streptococcus pneumoniae ATCC 6303; details: Table 2, Assay B, Mueller Hinton broth with 3% lysed horse blood, 20 to 24 hr; code F = Streptococcus pneumoniae ATCC 6303; unit assumed
Method in brief: as §1

[5] = system: Escherichia coli JUHL; details: Table 2, Assay B, cation-adjusted Mueller Hinton broth, 35° C., 16 to 20 hr; code D = Escherichia coli JUHL; unit assumed
Method in brief: as §1

| SMILES | Antibacterial Activity (MIC's), B [1] | Antibacterial Activity (MIC's), A [2] | Antibacterial Activity (MIC's), E [3] | Antibacterial Activity (MIC's), F [4] | Antibacterial Activity (MIC's), D [5] |
| --- | --- | --- | --- | --- | --- |
| COc1c(-c2cc3c(s2)CCC(=NOCc2ccccc2)C3)ccc2c(=O)c(C(=O)O)cn(C3CC3)c12 [Example 79, 7-((5E/Z)-5-((benzyloxy)imino)-4,5,6,7-tetrahydro-1-benzothien-2-yl)-1-cyclopropyl-8-methoxy-4-oxo-1,4-dihydro-3-quinolinecarboxylic acid] | 1 µg/mL | 0.125 µg/mL | 1 µg/mL | 0.5 µg/mL | 4 µg/mL |
| CCON=C1CCc2sc(-c3ccc4c(=O)c(C(=O)O)cn(C5CC5)c4c3OC)cc2C1 [Example 78, 1-cyclopropyl-7-((5E/Z)-5-(ethoxyimino)-4,5,6,7-tetrahydro-1-benzothien-2-yl)-8-methoxy-4-oxo-1,4-dihydro-3-quinolinecarboxylic acid] | 1 µg/mL | 0.125 µg/mL | 2 µg/mL | 0.25 µg/mL | 4 µg/mL |
| COc1c(-c2cc3c(s2)CCCC3N)c(F)cc2c(=O)c(C(=O)O)cn(C3CC3)c12.Cl (stereo not drawn) [Example 224, 7-(4-amino-4,5,6,7-tetrahydro-1-benzothien-2-yl)-1-cyclopropyl-6-fluoro-8-methoxy-4-oxo-1,4-dihydro-3-quinolinecarboxylic acid hydrochloride] | 0.03 µg/mL | 0.015 µg/mL | 0.015 µg/mL | 0.03 µg/mL | 0.125 µg/mL |
| Cc1c(-c2cc3c(s2)CCCC3O)c(F)cc2c(=O)c(C(=O)O)cn(C3CC3)c12 (stereo not drawn) [Example 316, 1-cyclopropyl-6-fluoro-7-(4-hydroxy-4,5,6,7-tetrahydro-1-benzothien-2-yl)-8-methyl-4-oxo-1,4-dihydroquinoline-3-carboxylic acid] | 0.06 µg/mL | ≤ 0.004 µg/mL | ≤ 0.004 µg/mL | 0.03 µg/mL | 0.06 µg/mL |
| O=C(O)c1cn(C2CC2)c2cc(-c3cc4c(s3)CCCC4O)c(F)cc2c1=O (stereo not drawn) [Example 296, 1-cyclopropyl-6-fluoro-7-(4-hydroxy-4,5,6,7-tetrahydro-1-benzothien-2-yl)-4-oxo-1,4-dihydroquinoline-3-carboxylic acid] | 0.25 µg/mL | ≤ 0.004 µg/mL | 0.06 µg/mL | 0.5 µg/mL | 0.5 µg/mL |
| COc1c(-c2cc3c(s2)CCC(=O)C3)ccc2c(=O)c(C(=O)O)cn(C3CC3)c12 [Example 53, 1-cyclopropyl-8-methoxy-4-oxo-7-(5-oxo-4,5,6,7-tetrahydro-1-benzothien-2-yl)-1,4-dihydro-3-quinolinecarboxylic acid] | 2 µg/mL | 0.06 µg/mL | 1 µg/mL | 0.5 µg/mL | 8 µg/mL |
| COc1c(-c2cc3c(s2)C(N)C(F)CC3)ccc2c(=O)c(C(=O)O)cn(C3CC3)c12.Cl (stereo not drawn) [Example 237, 7-(7-amino-6-fluoro-4,5,6,7-tetrahydro-1-benzothien-2-yl)-1-cyclopropyl-8-methoxy-4-oxo-1,4-dihydro-3-quinolinecarboxylic acid hydrochloride] | 0.5 µg/mL | 0.015 µg/mL | 0.03 µg/mL | 0.125 µg/mL | 0.125 µg/mL |
| CON=C1CCCc2cc(-c3ccc4c(=O)c(C(=O)O)cn(C5CC5)c4c3OC)sc21 [Example 63, 1-cyclopropyl-8-methoxy-7-((7E/Z)-7-(methoxyimino)-4,5,6,7-tetrahydro-1-benzothien-2-yl)-4-oxo-1,4-dihydro-3-quinolinecarboxylic acid] | 0.125 µg/mL | 0.015 µg/mL | 0.06 µg/mL | 0.25 µg/mL | 0.05 µg/mL |
| COc1c(-c2cc3c(s2)C(O)CNC3)ccc2c(=O)c(C(=O)O)cn(C3CC3)c12 (stereo not drawn) [Example 202, 1-cyclopropyl-7-(7-hydroxy-4,5,6,7-tetrahydrothieno[3,2-c]pyridin-2-yl)-8-methoxy-4-oxo-1,4-dihydro-3-quinolinecarboxylic acid] | 0.5 µg/mL | 0.125 µg/mL | 0.015 µg/mL | 0.25 µg/mL | 0.125 µg/mL |
| COc1c(-c2cc3c(s2)C(N)CNC3)ccc2c(=O)c(C(=O)O)cn(C3CC3)c12 (stereo not drawn) [Example 208, 7-(7-amino-4,5,6,7-tetrahydrothieno[3,2-c]pyridin-2-yl)-1-cyclopropyl-8-methoxy-4-oxo-1,4-dihydro-3-quinolinecarboxylic acid] | 0.5 µg/mL | 0.125 µg/mL | 0.06 µg/mL | 0.25 µg/mL | 0.25 µg/mL |
| COc1c(-c2cc3c(s2)CCC(C)C3N)ccc2c(=O)c(C(=O)O)cn(C3CC3)c12.Cl (stereo not drawn) [Example 199, 7-(4-amino-5-methyl-4,5,6,7-tetrahydro-1-benzothien-2-yl)-1-cyclopropyl-8-methoxy-4-oxo-1,4-dihydro-3-quinolinecarboxylic acid hydrochloride] | 0.125 µg/mL | 0.03 µg/mL | 0.125 µg/mL | 0.06 µg/mL | 0.25 µg/mL |
| COC(=O)NC1Cc2cc(-c3ccc4c(=O)c(C(=O)O)cn(C5CC5)c4c3OC)sc2C1 (stereo not drawn) [Example 251, 1-cyclopropyl-8-methoxy-7-(5-((methoxvycarbonyl)amino)-5,6-dihydro-4H-cyclopenta[b]thien-2-yl)-4-oxo-1,4-dihydro-3-quiunolinecarboxylic acid] | 0.5 µg/mL | 0.03 µg/mL | 0.125 µg/mL | 0.25 µg/mL | 2 µg/mL |
| Cl.NC1CCCc2sc(-c3nc4c(cc3F)c(=O)c(C(=O)O)cn4C3CC3)cc21 (stereo not drawn) [Example 156, 7-(4-amino-4,5,6,7-tetrahydro-1-benzothien-2-yl)-1-cyclopropyl-6-fluoro-4-oxo-1,4-dihydro[1,8]naphthyridine-3-carboxylic acid hydrochloride] | 0.125 µg/mL | 0.03 µg/mL | 0.015 µg/mL | 0.06 µg/mL | 0.03 µg/mL |
| COc1c(-c2cc3c(s2)C(O)C(F)CC3)ccc2c(=O)c(C(=O)O)cn(C3CC3)c12 (stereo not drawn) [Example 240, 1-cyclopropyl-7-(6-fluoro-7-hydroxy-4,5,6,7-tetrahydro-1-benzothien-2-yl)-8-methoxy-4-oxo-1,4-dihydro-3-quinolinecarboxylic acid] | 0.06 µg/mL | 0.004 µg/mL | 0.03 µg/mL | 1 µg/mL | 0.5 µg/mL |
| CNC1CCCc2sc(-c3c(F)cc4c(=O)c(C(=O)O)cn(C5CC5)c4c3OC)cc21.Cl (stereo not drawn) [Example 210, 1-cyclopropyl-6-fluoro-8-methoxy-7-(4-(methylamino)-4,5,6,7-tetrahydro-1-benzothien-2-yl)-4-oxo-1,4-dihydro-3-quinolinecarboxylic acid hydrochloride] | 0.125 µg/mL | 0.06 µg/mL | 0.03 µg/mL | 0.06 µg/mL | 0.25 µg/mL |
| COc1c(-c2cc3c(s2)CC(N)CC3)ccc2c(=O)c(C(=O)O)cn(C3CC3)c12.O=C(O)C(F)(F)F (stereo not drawn) [Example 71, 7-(6-amino-4,5,6,7-tetrahydro-1-benzothien-2-yl)-1-cyclopropyl-8-methoxy-4-oxo-1,4-dihydro-3-quinolinecarboxylic acid, trifluoroactic acid salt] | 0.03 µg/mL | 0.03 µg/mL | 0.015 µg/mL | 0.015 µg/mL | 0.06 µg/mL |
| Cl.NC1CCCc2cc(-c3cc(F)c4c(=O)c(C(=O)O)cn(C5CC5)c4c3F)sc21 (stereo not drawn) [Example 326, 7-(7-amino-4,5,6,7-tetrahydro-1-benzothien-2-yl)-1-cyclopropyl-5,8-difluoro-4-oxo-1,4-dihydroquinoline-3-carboxylic acid hydrochloride] | 0.25 µg/mL | 0.125 µg/mL | 0.015 µg/mL | 0.125 µg/mL | 0.125 µg/mL |
| O=C(O)c1cn(C2CC2)c2cc(-c3cc4c(s3)C(O)CCC4)ccc2c1=O (stereo not drawn) [Example 280, 1-cyclopropyl-7-(7-hydroxy-4,5,6,7-tetrahydro-1-benzothien-2-yl)-4-oxo-1,4-dihydroquinoline-3-carboxylic acid] | 0.125 µg/mL | 0.015 µg/mL | 0.06 µg/mL | 0.25 µg/mL | 0.125 µg/mL |
